Biological target: T1, CK1α (Homo sapiens, UniProt P48729+Q96SW2)
T1 construct: expressed in transfected cells
Assay: CK1α ePL degradation assay in MDS-L cells
Type: cell-based
Conditions: MDS-L cells expressing ePL-tagged CK1α; for DC50: concentration giving 50% CK1α degradation vs DMSO control; for Y: lowest measured CK1α level normalized to DMSO control
How it was run: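 MDS-L cells treated with compound in a 10-point, 3-fold series from 10 μM to 0.0005 μM at 37° C, 5% CO2 for the indicated times; CK1α measured by InCELL Hunter enzyme-fragment luminescence. Levels normalized to DMSO as percent of control; lowest level reached taken as Y value.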

T1 sequence (P48729 whole entry): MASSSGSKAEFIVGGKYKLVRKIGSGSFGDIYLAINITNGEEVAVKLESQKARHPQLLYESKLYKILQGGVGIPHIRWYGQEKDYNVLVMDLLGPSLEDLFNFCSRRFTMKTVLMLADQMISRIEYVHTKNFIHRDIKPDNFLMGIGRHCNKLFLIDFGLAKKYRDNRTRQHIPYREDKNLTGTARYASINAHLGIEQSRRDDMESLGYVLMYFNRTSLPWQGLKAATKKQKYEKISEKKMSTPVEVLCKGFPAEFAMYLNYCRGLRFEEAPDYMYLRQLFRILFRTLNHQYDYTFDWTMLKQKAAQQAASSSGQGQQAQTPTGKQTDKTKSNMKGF
T1 sequence (Q96SW2 whole entry): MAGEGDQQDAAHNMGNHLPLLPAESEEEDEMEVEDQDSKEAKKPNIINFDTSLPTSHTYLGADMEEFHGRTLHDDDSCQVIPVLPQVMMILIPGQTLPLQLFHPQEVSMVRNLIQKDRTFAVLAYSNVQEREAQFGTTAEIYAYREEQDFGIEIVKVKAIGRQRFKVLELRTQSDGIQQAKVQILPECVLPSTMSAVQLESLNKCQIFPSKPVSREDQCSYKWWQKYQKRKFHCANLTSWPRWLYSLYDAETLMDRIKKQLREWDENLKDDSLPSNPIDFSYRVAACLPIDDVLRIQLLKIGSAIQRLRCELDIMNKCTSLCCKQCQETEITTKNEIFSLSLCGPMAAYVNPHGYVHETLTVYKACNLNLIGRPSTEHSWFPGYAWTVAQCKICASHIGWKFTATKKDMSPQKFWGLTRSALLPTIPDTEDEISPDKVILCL
T1 sequence (Q16531 whole entry partner): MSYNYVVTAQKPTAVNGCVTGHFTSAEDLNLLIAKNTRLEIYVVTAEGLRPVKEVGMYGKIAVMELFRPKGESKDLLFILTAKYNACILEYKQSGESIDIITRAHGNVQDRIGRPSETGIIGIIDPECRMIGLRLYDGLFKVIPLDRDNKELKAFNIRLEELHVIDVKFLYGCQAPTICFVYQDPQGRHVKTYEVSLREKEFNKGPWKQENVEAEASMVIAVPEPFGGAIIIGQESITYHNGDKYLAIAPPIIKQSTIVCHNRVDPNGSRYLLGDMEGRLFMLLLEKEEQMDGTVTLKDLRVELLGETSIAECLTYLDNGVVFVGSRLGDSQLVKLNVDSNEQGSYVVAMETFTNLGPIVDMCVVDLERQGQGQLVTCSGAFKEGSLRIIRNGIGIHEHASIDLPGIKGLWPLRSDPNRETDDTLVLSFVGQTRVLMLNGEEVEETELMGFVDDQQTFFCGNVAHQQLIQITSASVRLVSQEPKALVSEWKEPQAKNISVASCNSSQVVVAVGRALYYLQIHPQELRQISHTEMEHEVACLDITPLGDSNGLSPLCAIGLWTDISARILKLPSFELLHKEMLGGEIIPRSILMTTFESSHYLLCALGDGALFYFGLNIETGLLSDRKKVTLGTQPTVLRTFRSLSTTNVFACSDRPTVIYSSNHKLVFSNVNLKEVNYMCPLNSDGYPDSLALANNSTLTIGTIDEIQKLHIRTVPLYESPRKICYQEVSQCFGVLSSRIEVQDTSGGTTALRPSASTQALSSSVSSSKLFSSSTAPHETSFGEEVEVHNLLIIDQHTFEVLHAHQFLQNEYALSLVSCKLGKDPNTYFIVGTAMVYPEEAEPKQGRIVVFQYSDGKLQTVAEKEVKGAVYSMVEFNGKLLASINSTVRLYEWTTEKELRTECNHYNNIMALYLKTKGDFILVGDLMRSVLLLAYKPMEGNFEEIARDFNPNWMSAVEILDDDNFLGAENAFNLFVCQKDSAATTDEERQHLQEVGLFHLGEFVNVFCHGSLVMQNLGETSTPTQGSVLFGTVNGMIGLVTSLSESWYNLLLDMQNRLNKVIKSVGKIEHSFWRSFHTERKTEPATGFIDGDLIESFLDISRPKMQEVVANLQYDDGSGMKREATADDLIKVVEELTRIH

Row | Compound | DC50 [nM] | Y
1 | O=C1CCC(N2Cc3cc(C(=O)N[C@H](c4ccc(Oc5ccccc5)cc4)C(F)(F)F)ccc3C2=O)C(=O)N1 (stereo partly drawn) [Example 147, 2-(2,6-dioxopiperidin-3-yl)-1-oxo-N-((R)-2,2,2-trifluoro-1-(4-phenoxyphenyl)ethyl)isoindoline-5-carboxamide] | 100 to 500 | ** (a Y value (shown as**) of 20%<Y≤35%)
2 | O=C1CCC(N2Cc3cc(C(=O)N[C@H](c4cccc(OC(F)(F)F)c4)C(F)(F)F)ccc3C2=O)C(=O)N1 (stereo partly drawn) [Example 58, 2-(2,6-dioxopiperidin-3-yl)-1-oxo-N-((R)-2,2,2-trifluoro-1-(3-(trifluoromethoxy)phenyl)ethyl)isoindoline-5-carboxamide] | < 100 | * (a Y value (shown as *) of 0<Y≤20%)
3 | CC(C)Oc1cccc([C@@H](NC(=O)c2ccc3c(c2)CN(C2CCC(=O)NC2=O)C3=O)C(F)(F)F)c1 (stereo partly drawn) [Example 102, 2-(2,6-dioxopiperidin-3-yl)-1-oxo-N-((R)-2,2,2-trifluoro-1-(3-isopropoxyphenyl)ethyl)isoindoline-5-carboxamide] | < 100 | ** (a Y value (shown as**) of 20%<Y≤35%)
4 | CN(C)Cc1cccc([C@@H](NC(=O)c2ccc3c(c2)CN(C2CCC(=O)NC2=O)C3=O)C(F)(F)F)c1 (stereo partly drawn) [Example 150, N-((R)-1-(3-((dimethylamino)methyl)phenyl)-2,2,2-trifluoroethyl)-2-(2,6-dioxopiperidin-3-yl)-1-oxoisoindoline-5-carboxamide] | 100 to 500 | ** (a Y value (shown as**) of 20%<Y≤35%)
5 | O=C1CCC(N2Cc3c(ccc(C(=O)N[C@H](c4cccc(OC(F)(F)F)c4)C(F)(F)F)c3F)C2=O)C(=O)N1 (stereo partly drawn) [Example 120, 2-(2,6-dioxopiperidin-3-yl)-4-fluoro-1-oxo-N-((R)-2,2,2-trifluoro-1-(3-(trifluoromethoxy)phenyl)ethyl)isoindoline-5-carboxamide] | 100 to 500 | ** (a Y value (shown as**) of 20%<Y≤35%)
6 | O=C1CCC(N2Cc3cc(C(=O)N[C@H](CC(F)(F)F)c4cccc(Cl)c4)ccc3C2=O)C(=O)N1 (stereo partly drawn) [Example 194, N-((R)-1-(3-chlorophenyl)-3,3,3-trifluoropropyl)-2-(2,6-dioxopiperidin-3-yl)-1-oxoisoindoline-5-carboxamide] | < 100 | ** (a Y value (shown as**) of 20%<Y≤35%)
7 | CC(C)(CO)[C@@H](NC(=O)c1ccc2c(c1)CN(C1CCC(=O)NC1=O)C2=O)C(F)(F)F (stereo partly drawn) [Example 95, 2-(2,6-dioxopiperidin-3-yl)-1-oxo-N-((R)-1,1,1-trifluoro-4-hydroxy-3,3-dimethylbutan-2-yl)isoindoline-5-carboxamide] | 500 to 1000 | ** (a Y value (shown as**) of 20%<Y≤35%)
8 | O=C1CCC(N2Cc3cc(C(=O)N[C@@H](CC(F)(F)F)c4ccc(F)cc4)ccc3C2=O)C(=O)N1 (stereo partly drawn) [Example 123, 2-(2,6-dioxopiperidin-3-yl)-1-oxo-N-((S)-3,3,3-trifluoro-1-(4-fluorophenyl)propyl)isoindoline-5-carboxamide] | 100 to 500 | ** (a Y value (shown as**) of 20%<Y≤35%)
9 | O=C1CCC(N2Cc3c(ccc(C(=O)N[C@H](c4ccc(OC(F)(F)F)cc4)C(F)(F)F)c3F)C2=O)C(=O)N1 (stereo partly drawn) [Example 135, 2-(2,6-dioxopiperidin-3-yl)-4-fluoro-1-oxo-N-((R)-2,2,2-trifluoro-1-(4-(trifluoromethoxy)phenyl)ethyl)isoindoline-5-carboxamide] | 100 to 500 | ** (a Y value (shown as**) of 20%<Y≤35%)
10 | O=C1CCC(N2Cc3cc(C(=O)N[C@H](c4ccncc4)C(F)(F)F)ccc3C2=O)C(=O)N1 (stereo partly drawn) [Example 39, 2-(2,6-dioxopiperidin-3-yl)-1-oxo-N-((R)-2,2,2-trifluoro-1-(pyridin-4-yl)ethyl)isoindoline-5-carboxamide] | 500 to 1000 | *** (a Y value (shown as***) of 35%<Y<50%)
11 | CC[C@H](NC(=O)c1ccc2c(c1)CN(C1CCC(=O)NC1=O)C2=O)c1ccccc1 (stereo partly shown) [Example 6] | < 100 | * (a Y value (shown as *) of 0<Y≤20%)
12 | O=C1CCC(N2Cc3c(ccc(C(=O)N[C@H](c4ccccc4C(F)(F)F)C(F)(F)F)c3F)C2=O)C(=O)N1 (stereo partly drawn) [Example 98, 2-(2,6-dioxopiperidin-3-yl)-4-fluoro-1-oxo-N-((R)-2,2,2-trifluoro-1-(2-(trifluoromethyl)phenyl)ethyl)isoindoline-5-carboxamide] | < 100 | * (a Y value (shown as *) of 0<Y≤20%)
13 | O=C1CC[C@@H](N2Cc3cc(C(=O)N[C@H](c4ncccc4Cl)C(F)(F)F)ccc3C2=O)C(=O)N1 [Example 182, N-((R)-1-(3-chloropyridin-2-yl)-2,2,2-trifluoroethyl)-2-((R)-2,6-dioxopiperidin-3-yl)-1-oxoisoindoline-5-carboxamide] | < 100 | * (a Y value (shown as *) of 0<Y≤20%)
14 | CC(C)[C@@H](NC(=O)c1ccc2c(c1)CN(C1CCC(=O)NC1=O)C2=O)c1ncccc1Cl (stereo partly drawn) [Example 171, N-((R)-1-(3-chloropyridin-2-yl)-2-methylpropyl)-2-(2,6-dioxopiperidin-3-yl)-1-oxoisoindoline-5-carboxamide] | 100 to 500 | ** (a Y value (shown as**) of 20%<Y≤35%)
15 | O=C1CCC(N2Cc3cc(C(=O)N[C@H](c4ccccc4)C(F)(F)F)c(F)cc3C2=O)C(=O)N1 (stereo partly drawn) [Example 84, 2-(2,6-dioxopiperidin-3-yl)-6-fluoro-1-oxo-N-((R)-2,2,2-trifluoro-1-phenylethyl)isoindoline-5-carboxamide] | 100 to 500 | ** (a Y value (shown as**) of 20%<Y≤35%)
16 | O=C1CCC(N2Cc3cc(C(=O)N[C@H](c4cccc(CN5CCOCC5)c4)C(F)(F)F)ccc3C2=O)C(=O)N1 (stereo partly drawn) [Example 140, 2-(2,6-dioxopiperidin-3-yl)-1-oxo-N-((R)-2,2,2-trifluoro-1-(3-(morpholinomethyl)phenyl)ethyl)isoindoline-5-carboxamide] | < 100 | * (a Y value (shown as *) of 0<Y≤20%)
17 | CC(C)[C@H](NC(=O)c1ccc2c(c1)CN(C1CCC(=O)NC1=O)C2=O)c1ccccc1F (stereo partly drawn) [Example 167, 2-(2,6-dioxopiperidin-3-yl)-N-((S)-1-(2-fluorophenyl)-2-methylpropyl)-1-oxoisoindoline-5-carboxamide] | < 100 | * (a Y value (shown as *) of 0<Y≤20%)
18 | O=C1CCC(N2Cc3cc(C(=O)N[C@H](c4ccccc4OC4CC4)C(F)(F)F)ccc3C2=O)C(=O)N1 (stereo partly drawn) [Example 161, N-((R)-1-(2-cyclopropoxyphenyl)-2,2,2-trifluoroethyl)-2-(2,6-dioxopiperidin-3-yl)-1-oxoisoindoline-5-carboxamide] | < 100 | * (a Y value (shown as *) of 0<Y≤20%)
19 | O=C1CCC(N2Cc3cc(C(=O)N[C@H](c4cccc(F)c4)C(F)(F)F)ccc3C2=O)C(=O)N1 (stereo partly drawn) [Example 37, 2-(2,6-dioxopiperidin-3-yl)-1-oxo-N-((R)-2,2,2-trifluoro-1-(3-fluorophenyl)ethyl)isoindoline-5-carboxamide] | < 100 | ** (a Y value (shown as**) of 20%<Y≤35%)
20 | CC(C)[C@H](NC(=O)c1ccc2c(c1)CN(C1CCC(=O)NC1=O)C2=O)c1ccccc1Cl (stereo partly drawn) [Example 169, N-((S)-1-(2-chlorophenyl)-2-methylpropyl)-2-(2,6-dioxopiperidin-3-yl)-1-oxoisoindoline-5-carboxamide] | < 100 | * (a Y value (shown as *) of 0<Y≤20%)

— patent US11306101B2 (Celgene Corporation, priority 2019, dated 2022)
